PubChem BioAssay AID180 (DTP/NCI, 2004)
Values joined by “and” are separate entries in the source; they are usually repeats but may differ in a detail not shown here. Equal entries are not always repeated.

System: BDF1 mice, Adenocarcinoma 755 s.c., tumor weight T/C
Assay: NCI In Vivo Anticancer Drug Screen. Data for tumor model Adenocarcinoma 755 (subcutaneous) in B6D2F1 (BDF1) mice
Conditions: endpoint: mean tumor weight, higher = larger tumour
Outline: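 Values express treated (T) relative to vehicle-dosed control (C) animals, based on survival or tumour size measured after compound treatment of mice bearing a transplanted tumour.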

## CC(=O)OCC(=O)[C@@]1(O)CC[C@H]2[C@@H]3C[C@H](C)C4=CC(=O)C=C[C@]4(C)[C@@]3(F)[C@@H](O)C[C@@]21C
dose: 0.06 mg/kg/injection, schedule: Q01DX011 (sc), vehicle: steriod suspending solution
  T/C: 101 % of control
dose: 0.13 mg/kg/injection, schedule: Q01DX011 (sc), vehicle: steriod suspending solution
  T/C: 87 % of control
dose: 4.0 mg/kg/injection, schedule: Q01DX011 (sc), vehicle: steriod suspending solution
  T/C: 49 % of control
dose: 5.0 mg/kg/injection, schedule: Q01DX011 (sc), vehicle: steriod suspending solution
  T/C: 48 % of control
dose: 9.0 mg/kg/injection, schedule: Q01DX011 (sc), vehicle: steriod suspending solution
  T/C: 37 % of control
dose: 10.0 mg/kg/injection, schedule: Q01DX011 (sc), vehicle: steriod suspending solution
  T/C: 34 % of control
dose: 18.0 mg/kg/injection, schedule: Q01DX011 (sc), vehicle: steriod suspending solution
  T/C: 37 % of control and 51 % of control
dose: 20.0 mg/kg/injection, schedule: Q01DX011 (sc), vehicle: steriod suspending solution
  T/C: 21 % of control
dose: 37.0 mg/kg/injection, schedule: Q01DX011 (sc), vehicle: steriod suspending solution
  T/C: 13 % of control and 22 % of control
dose: 75.0 mg/kg/injection, schedule: Q01DX011 (sc), vehicle: steriod suspending solution
  T/C: 15 % of control

## c1ccc(CSc2ncnc3nc[nH]c23)cc1
dose: 1.5 mg/kg/injection, schedule: Q01DX011 (ip), vehicle: alkali diluted with saline
  T/C: 2 % of control
dose: 1.5 mg/kg/injection, schedule: Q01DX011 (oral), vehicle: alkali diluted with saline
  T/C: 22 % of control
dose: 2.5 mg/kg/injection, schedule: Q01DX011 (ip), vehicle: saline
  T/C: 35 % of control
dose: 3.0 mg/kg/injection, schedule: Q01DX011 (ip), vehicle: alkali diluted with saline
  T/C: 44 % of control
dose: 3.0 mg/kg/injection, schedule: Q01DX011 (ip), vehicle: carboxymethylcellulose (CMC)
  T/C: 59 % of control
dose: 3.0 mg/kg/injection, schedule: Q01DX011 (oral), vehicle: alkali diluted with saline
  T/C: 28 % of control
dose: 3.1 mg/kg/injection, schedule: Q01DX011 (ip), vehicle: carboxymethylcellulose (CMC)
  T/C: 43 % of control
dose: 5.0 mg/kg/injection, schedule: Q01DX011 (ip), vehicle: saline
  T/C: 12 % of control
dose: 6.0 mg/kg/injection, schedule: Q01DX006 (iv), vehicle: saline
  T/C: 17 % of control
dose: 6.0 mg/kg/injection, schedule: Q01DX011 (im), vehicle: saline
  T/C: 12 % of control
dose: 6.0 mg/kg/injection, schedule: Q01DX011 (ip), vehicle: alkali diluted with saline
  T/C: 16 % of control
dose: 6.0 mg/kg/injection, schedule: Q01DX011 (ip), vehicle: carboxymethylcellulose (CMC)
  T/C: 22 % of control and 32 % of control
dose: 6.0 mg/kg/injection, schedule: Q01DX011 (ip), vehicle: saline
  T/C: 2 % of control
dose: 6.0 mg/kg/injection, schedule: Q01DX011 (oral), vehicle: alkali diluted with saline
  T/C: 16 % of control
dose: 6.0 mg/kg/injection, schedule: Q01DX011 (sc), vehicle: steriod suspending solution
  T/C: 9 % of control
dose: 6.2 mg/kg/injection, schedule: Q01DX011 (ip), vehicle: carboxymethylcellulose (CMC)
  T/C: 15 % of control
dose: 10.0 mg/kg/injection, schedule: Q01DX011 (ip), vehicle: saline
  T/C: 5 % of control
dose: 11.0 mg/kg/injection, schedule: Q07DX002 (ip), vehicle: alkali diluted with saline
  T/C: 39 % of control
dose: 12.0 mg/kg/injection, schedule: Q01DX006 (iv), vehicle: saline
  T/C: 2 % of control
dose: 12.0 mg/kg/injection, schedule: Q01DX011 (im), vehicle: saline
  T/C: 3 % of control
dose: 12.0 mg/kg/injection, schedule: Q01DX011 (ip), vehicle: carboxymethylcellulose (CMC)
  T/C: 3 % of control
dose: 12.0 mg/kg/injection, schedule: Q01DX011 (oral), vehicle: alkali diluted with saline
  T/C: 54 % of control
dose: 12.0 mg/kg/injection, schedule: Q01DX011 (sc), vehicle: steriod suspending solution
  T/C: 5 % of control
dose: 12.5 mg/kg/injection, schedule: Q01DX011 (ip), vehicle: carboxymethylcellulose (CMC)
  T/C: 3 % of control
dose: 13.0 mg/kg/injection, schedule: Q01DX011 (ip), vehicle: carboxymethylcellulose (CMC)
  T/C: 17 % of control
dose: 19.0 mg/kg/injection, schedule: Q03DX004 (ip), vehicle: carboxymethylcellulose (CMC)
  T/C: 31 % of control
dose: 22.0 mg/kg/injection, schedule: Q07DX002 (ip), vehicle: alkali diluted with saline
  T/C: 50 % of control
dose: 25.0 mg/kg/injection, schedule: Q01DX006 (iv), vehicle: carboxymethylcellulose (CMC)
  T/C: 9 % of control
dose: 25.0 mg/kg/injection, schedule: Q01DX006 (iv), vehicle: saline
  T/C: 3 % of control
dose: 25.0 mg/kg/injection, schedule: Q01DX011 (im), vehicle: saline
  T/C: 1 % of control
dose: 25.0 mg/kg/injection, schedule: Q01DX011 (ip), vehicle: saline
  T/C: 2 % of control
dose: 25.0 mg/kg/injection, schedule: Q01DX011 (oral), vehicle: carboxymethylcellulose (CMC)
  T/C: 10 % of control
dose: 25.0 mg/kg/injection, schedule: Q01DX011 (sc), vehicle: carboxymethylcellulose (CMC)
  T/C: 14 % of control
dose: 25.0 mg/kg/injection, schedule: Q01DX011 (sc), vehicle: steriod suspending solution
  T/C: 3 % of control
dose: 38.0 mg/kg/injection, schedule: Q03DX004 (ip), vehicle: carboxymethylcellulose (CMC)
  T/C: 2 % of control
dose: 44.0 mg/kg/injection, schedule: Q07DX002 (ip), vehicle: alkali diluted with saline
  T/C: 43 % of control
dose: 44.0 mg/kg/injection, schedule: Q07DX002 (ip), vehicle: carboxymethylcellulose (CMC)
  T/C: 5 % of control
dose: 50.0 mg/kg/injection, schedule: Q01DX006 (iv), vehicle: carboxymethylcellulose (CMC)
  T/C: 17 % of control
dose: 50.0 mg/kg/injection, schedule: Q01DX011 (im), vehicle: carboxymethylcellulose (CMC)
  T/C: 8 % of control
dose: 50.0 mg/kg/injection, schedule: Q01DX011 (ip), vehicle: carboxymethylcellulose (CMC)
  T/C: 3 % of control and 8 % of control
dose: 50.0 mg/kg/injection, schedule: Q01DX011 (oral), vehicle: carboxymethylcellulose (CMC)
  T/C: 6 % of control
dose: 50.0 mg/kg/injection, schedule: Q01DX011 (sc), vehicle: steriod suspending solution
  T/C: 1 % of control
dose: 75.0 mg/kg/injection, schedule: Q03DX004 (ip), vehicle: carboxymethylcellulose (CMC)
  T/C: 2 % of control and 13 % of control
dose: 88.0 mg/kg/injection, schedule: Q07DX002 (ip), vehicle: alkali diluted with saline
  T/C: 16 % of control
dose: 88.0 mg/kg/injection, schedule: Q07DX002 (ip), vehicle: carboxymethylcellulose (CMC)
  T/C: 45 % of control
dose: 100.0 mg/kg/injection, schedule: Q01DX011 (im), vehicle: carboxymethylcellulose (CMC)
  T/C: 1 % of control and 2 % of control
dose: 100.0 mg/kg/injection, schedule: Q01DX011 (ip), vehicle: carboxymethylcellulose (CMC)
  T/C: 2 % of control
dose: 100.0 mg/kg/injection, schedule: Q01DX011 (sc), vehicle: steriod suspending solution
  T/C: 2 % of control
dose: 175.0 mg/kg/injection, schedule: Q07DX002 (ip), vehicle: carboxymethylcellulose (CMC)
  T/C: 3 % of control and 4 % of control
dose: 200.0 mg/kg/injection, schedule: Q01DX011 (im), vehicle: carboxymethylcellulose (CMC)
  T/C: 11 % of control and 17 % of control
dose: 200.0 mg/kg/injection, schedule: Q01DX011 (oral), vehicle: carboxymethylcellulose (CMC)
  T/C: 1 % of control and 6 % of control
dose: 200.0 mg/kg/injection, schedule: Q01DX011 (sc), vehicle: carboxymethylcellulose (CMC)
  T/C: 17 % of control
dose: 300.0 mg/kg/injection, schedule: Q03DX004 (ip), vehicle: carboxymethylcellulose (CMC)
  T/C: 6 % of control
dose: 350.0 mg/kg/injection, schedule: Q07DX002 (ip), vehicle: carboxymethylcellulose (CMC)
  T/C: 1 % of control and 6 % of control
dose: 600.0 mg/kg/injection, schedule: Q03DX004 (ip), vehicle: alkali diluted with saline
  T/C: 3 % of control
dose: 700.0 mg/kg/injection, schedule: Q07DX002 (ip), vehicle: carboxymethylcellulose (CMC)
  T/C: 1 % of control

## CCCCCCC(=O)NC1=C(N2CC2)C(=O)C(NC(=O)CCCCCC)=C(N2CC2)C1=O
dose: 11.25 mg/kg/injection, schedule: Q01DX011 (ip), vehicle: carboxymethylcellulose (CMC)
  T/C: 48 % of control
dose: 45.0 mg/kg/injection, schedule: Q01DX011 (ip), vehicle: carboxymethylcellulose (CMC)
  T/C: 4 % of control

## COC12C(COC(N)=O)C3=C(C(=O)C(C)=C(N)C3=O)N1CC1C2N1C (configuration not stated)
dose: 1.25 mg/kg/injection, schedule: Q01DX011 (ip), vehicle: carboxymethylcellulose (CMC)
  T/C: 62 % of control
dose: 2.5 mg/kg/injection, schedule: Q01DX011 (ip), vehicle: carboxymethylcellulose (CMC)
  T/C: 52 % of control
dose: 5.0 mg/kg/injection, schedule: Q01DX011 (ip), vehicle: carboxymethylcellulose (CMC)
  T/C: 27 % of control
dose: 10.0 mg/kg/injection, schedule: Q01DX011 (ip), vehicle: carboxymethylcellulose (CMC)
  T/C: 3 % of control and 7 % of control

## CC(C)Sc1nc(N)nc2c1ncn2C1OC(CO)C(O)C1O (configuration not stated)
dose: 0.38 mg/kg/injection, schedule: Q01DX011 (ip), vehicle: methylcellulose (MC)
  T/C: 48 % of control
dose: 0.75 mg/kg/injection, schedule: Q01DX011 (ip), vehicle: methylcellulose (MC)
  T/C: 60 % of control
dose: 1.5 mg/kg/injection, schedule: Q01DX011 (ip), vehicle: methylcellulose (MC)
  T/C: 40 % of control
dose: 3.0 mg/kg/injection, schedule: Q01DX011 (ip), vehicle: methylcellulose (MC)
  T/C: 36 % of control
dose: 3.1 mg/kg/injection, schedule: Q01DX011 (ip), vehicle: methylcellulose (MC)
  T/C: 3 % of control
